# Legend:
# Format in all cases: functional
# HCT-116 = experiment: Growth inhibition of human HCT116 cells after 48 hrs by Sulforhodamine B assay; conditions: HCT-116, 48 h
# OVCAR-8 = experiment: Growth inhibition of human OVCAR8 cells after 48 hrs by Sulforhodamine B assay; conditions: OVCAR-8, 48 h
# DMS-114 = experiment: Growth inhibition of human DMS114 cells after 48 hrs by Sulforhodamine B assay; conditions: DMS-114, 48 h
# SF-295 = experiment: Growth inhibition of human SF295 cells after 48 hrs by Sulforhodamine B assay; conditions: SF-295, 48 h
# LOX IMVI = experiment: Growth inhibition of human LOXIMVI cells after 48 hrs by Sulforhodamine B assay
# [1] = Growth inhibition of human HBC4 cells after 48 hrs by Sulforhodamine B assay; conditions: read-out: logGI50 (converted)
# SK-OV-3 = experiment: Growth inhibition of human SKOV3 cells after 48 hrs by Sulforhodamine B assay; conditions: SK-OV-3, 48 h
# OVCAR-4 = experiment: Growth inhibition of human OVCAR4 cells after 48 hrs by Sulforhodamine B assay; conditions: OVCAR-4, 48 h
# NCI-H522 = experiment: Growth inhibition of human NCI-H522 cells after 48 hrs by Sulforhodamine B assay; conditions: NCI-H522, 48 h
# NCI-H226 = experiment: Growth inhibition of human NCI-H226 cells after 48 hrs by Sulforhodamine B assay; conditions: NCI-H226, 48 h
# U-251 = experiment: Growth inhibition of human U251 cells after 48 hrs by Sulforhodamine B assay; conditions: U-251, 48 h
# [2] = Growth inhibition of human HCC2998 cells after 48 hrs by Sulforhodamine B assay; conditions: HCC 2998, 48 h
# MKN-7 = experiment: Growth inhibition of human MKN7 cells after 48 hrs by Sulforhodamine B assay; conditions: MKN-7, 48 h
# [3] = Growth inhibition of human BSY1 cells after 48 hrs by Sulforhodamine B assay; conditions: BSY-1, 48 h
# A549 = experiment: Growth inhibition of human A549 cells after 48 hrs by Sulforhodamine B assay; conditions: A549, 48 h
# OVCAR-3 = experiment: Growth inhibition of human OVCAR3 cells after 48 hrs by Sulforhodamine B assay; conditions: OVCAR-3, 48 h
# SNB-75 = experiment: Growth inhibition of human SNB75 cells after 48 hrs by Sulforhodamine B assay; conditions: SNB-75, 48 h
# SF-268 = experiment: Growth inhibition of human SF268 cells after 48 hrs by Sulforhodamine B assay; conditions: SF-268, 48 h
# HCT-15 = experiment: Growth inhibition of human HCT15 cells after 48 hrs by Sulforhodamine B assay; conditions: HCT-15, 48 h
# ACHN = experiment: Growth inhibition of human ACHN cells after 48 hrs by Sulforhodamine B assay
# MDA-MB-231 = experiment: Growth inhibition of human MDA-MB-231 cells after 48 hrs by Sulforhodamine B assay; conditions: MDA-MB-231, 48 h
# SF-539 = experiment: Growth inhibition of human SF539 cells after 48 hrs by Sulforhodamine B assay; conditions: SF-539, 48 h
# KM12 = experiment: Growth inhibition of human KM12 cells after 48 hrs by Sulforhodamine B assay; conditions: KM12, 48 h
# MKN-74 = experiment: Growth inhibition of human MKN74 cells after 48 hrs by Sulforhodamine B assay; conditions: MKN-74, 48 h
# St-4 = experiment: Growth inhibition of human St-4 cells after 48 hrs by Sulforhodamine B assay; conditions: St-4, 48 h
# MKN-28 = experiment: Growth inhibition of human MKN28 cells after 48 hrs by Sulforhodamine B assay; conditions: MKN-28, 48 h
# DMS-273 = experiment: Growth inhibition of human DMS273 cells after 48 hrs by Sulforhodamine B assay; conditions: DMS-273, 48 h
# OVCAR-5 = experiment: Growth inhibition of human OVCAR5 cells after 48 hrs by Sulforhodamine B assay; conditions: OVCAR-5, 48 h
# NCI-H23 = experiment: Growth inhibition of human NCI-H23 cells after 48 hrs by Sulforhodamine B assay; conditions: NCI-H23, 48 h
# SNB-78 = experiment: Growth inhibition of human SNB-78 cells after 48 hrs by Sulforhodamine B assay; conditions: SNB-78, 48 h
# [4] = Growth inhibition of human HBC5 cells after 48 hrs by Sulforhodamine B assay; conditions: HBC5, 48 h
# NCI-H460 = experiment: Growth inhibition of human NCI-H460 cells after 48 hrs by Sulforhodamine B assay; conditions: NCI-H460, 48 h
# MCF7 = experiment: Growth inhibition of human MCF7 cells after 48 hrs by Sulforhodamine B assay; conditions: MCF7, 48 h
# [5] = Growth inhibition of human MKN1 cells after 48 hrs by Sulforhodamine B assay; conditions: MKN-1, 48 h
# HT-29 = experiment: Growth inhibition of human HT-29 cells after 48 hrs by Sulforhodamine B assay; conditions: HT-29, 48 h
# MKN-45 = experiment: Growth inhibition of human MKN45 cells after 48 hrs by Sulforhodamine B assay; conditions: MKN-45, 48 h
# [6] = Growth inhibition of human RXF631L cells after 48 hrs by Sulforhodamine B assay; conditions: RXF 631, 48 h
# PC-3 = experiment: Growth inhibition of human PC3 cells after 48 hrs by Sulforhodamine B assay; conditions: PC-3, 48 h
# DU-145 = experiment: Growth inhibition of human DU145 cells after 48 hrs by Sulforhodamine B assay; conditions: DU-145, 48 h
structure (smiles),measurement,setting,value
C/C(=C\C=C\[C@@H]1[C@H]2[C@H](C)[C@@H](O)[C@H](C)C[C@@H]2C=C[C@@H]1C)C(=O)NCc1cccnc1 (stereo in doubt; form 1),GI50,HCT-116; read-out: logGI50 (converted),40.7 nM
same,GI50,OVCAR-8; read-out: logGI50 (converted),39.8 nM
same,GI50,DMS-114; read-out: logGI50 (converted),39.8 nM
same,GI50,SF-295; read-out: logGI50 (converted),58.9 nM
same,GI50,LOX IMVI; read-out: logGI50 (converted),22.9 nM
same,GI50,[1],41.7 nM
same,GI50,SK-OV-3; read-out: logGI50 (converted),41.7 nM
same,GI50,OVCAR-4; read-out: logGI50 (converted),31.6 nM
same,GI50,NCI-H522; read-out: logGI50 (converted),123 nM
same,GI50,NCI-H226; read-out: logGI50 (converted),23.4 nM
same,GI50,U-251; read-out: logGI50 (converted),58.9 nM
same,GI50,[2]; read-out: logGI50 (converted),39.8 nM
same,GI50,MKN-7; read-out: logGI50 (converted),50.1 nM
same,GI50,[3]; read-out: logGI50 (converted),12.6 nM
same,GI50,A549; read-out: logGI50 (converted),57.5 nM
same,GI50,OVCAR-3; read-out: logGI50 (converted),33.1 nM
same,GI50,SNB-75; read-out: logGI50 (converted),23.4 nM
same,GI50,SF-268; read-out: logGI50 (converted),44.7 nM
same,GI50,HCT-15; read-out: logGI50 (converted),70.8 nM
same,GI50,ACHN; read-out: logGI50 (converted),47.9 nM
same,GI50,MDA-MB-231; read-out: logGI50 (converted),24 nM
same,GI50,SF-539; read-out: logGI50 (converted),52.5 nM
same,GI50,KM12; read-out: logGI50 (converted),35.5 nM
same,GI50,MKN-74; read-out: logGI50 (converted),56.2 nM
same,GI50,St-4; read-out: logGI50 (converted),195 nM
same,GI50,MKN-28; read-out: logGI50 (converted),79.4 nM
same,GI50,DMS-273; read-out: logGI50 (converted),53.7 nM
same,GI50,OVCAR-5; read-out: logGI50 (converted),38.9 nM
same,GI50,NCI-H23; read-out: logGI50 (converted),53.7 nM
same,GI50,SNB-78; read-out: logGI50 (converted),51.3 nM
same,GI50,[4]; read-out: logGI50 (converted),34.7 nM
same,GI50,NCI-H460; read-out: logGI50 (converted),91.2 nM
same,GI50,MCF7; read-out: logGI50 (converted),42.7 nM
same,GI50,[5]; read-out: logGI50 (converted),30.2 nM
same,GI50,HT-29; read-out: logGI50 (converted),33.9 nM
same,GI50,MKN-45; read-out: logGI50 (converted),31.6 nM
same,GI50,[6]; read-out: logGI50 (converted),53.7 nM
same,GI50,PC-3; read-out: logGI50 (converted),45.7 nM
same,GI50,DU-145; read-out: logGI50 (converted),245 nM
C/C(=C\C=C\[C@@H]1[C@H]2[C@H](C)[C@@H](O)[C@H](C)C[C@@H]2C=C[C@@H]1C)C(=O)NCc1cccnc1 (stereo in doubt; form 2),GI50,HCT-116; read-out: pGI50 (converted),74.1 nM
same,GI50,OVCAR-8; read-out: GI50,37.2 nM
same,GI50,OVCAR-8; read-out: pGI50 (converted),37.1 nM
same,GI50,DMS-114; read-out: pGI50 (converted),52.5 nM
same,GI50,SF-295; read-out: pGI50 (converted),100 nM
same,GI50,LOX IMVI; read-out: GI50,33.1 nM
same,GI50,LOX IMVI; read-out: pGI50 (converted),33.1 nM
same,GI50,"[1]; Homo sapiens, HBC4, 48 h",46.8 nM
same,GI50,SK-OV-3; read-out: pGI50 (converted),44.7 nM
same,GI50,OVCAR-4; read-out: GI50,34.7 nM
same,GI50,OVCAR-4; read-out: pGI50 (converted),34.7 nM
same,GI50,NCI-H522; read-out: pGI50 (converted),191 nM
same,GI50,NCI-H226; read-out: GI50,30.9 nM
same,GI50,NCI-H226; read-out: pGI50 (converted),30.9 nM
same,GI50,U-251; read-out: pGI50 (converted),70.8 nM
same,GI50,[2]; read-out: pGI50 (converted),47.9 nM
same,GI50,MKN-7; read-out: pGI50 (converted),66.1 nM
same,GI50,[3]; read-out: GI50,18.2 nM
same,GI50,[3]; read-out: pGI50 (converted),18.2 nM
same,GI50,A549; read-out: pGI50 (converted),51.3 nM
same,GI50,OVCAR-3; read-out: pGI50 (converted),46.8 nM
same,GI50,SNB-75; read-out: GI50,30.2 nM
same,GI50,SNB-75; read-out: pGI50 (converted),30.2 nM
same,GI50,SF-268; read-out: pGI50 (converted),51.3 nM
same,GI50,HCT-15; read-out: pGI50 (converted),126 nM
same,GI50,ACHN; read-out: pGI50 (converted),81.3 nM
same,GI50,MDA-MB-231; read-out: GI50,22.9 nM
same,GI50,MDA-MB-231; read-out: pGI50 (converted),22.9 nM
same,GI50,SF-539; read-out: pGI50 (converted),58.9 nM
same,GI50,KM12; read-out: GI50,35.5 nM
same,GI50,KM12; read-out: pGI50 (converted),35.5 nM
same,GI50,MKN-74; read-out: pGI50 (converted),81.3 nM
same,GI50,St-4; read-out: pGI50 (converted),214 nM
same,GI50,MKN-28; read-out: pGI50 (converted),83.2 nM
same,GI50,DMS-273; read-out: pGI50 (converted),79.4 nM
same,GI50,OVCAR-5; read-out: pGI50 (converted),41.7 nM
same,GI50,NCI-H23; read-out: pGI50 (converted),60.3 nM
same,GI50,SNB-78; read-out: pGI50 (converted),58.9 nM
same,GI50,[4]; read-out: pGI50 (converted),41.7 nM
same,GI50,NCI-H460; read-out: pGI50 (converted),174 nM
same,GI50,MCF7; read-out: pGI50 (converted),47.9 nM
same,GI50,[5]; read-out: GI50,36.3 nM
same,GI50,[5]; read-out: pGI50 (converted),36.3 nM
same,GI50,HT-29; read-out: GI50,33.9 nM
same,GI50,HT-29; read-out: pGI50 (converted),33.9 nM
same,GI50,MKN-45; read-out: GI50,27.5 nM
same,GI50,MKN-45; read-out: pGI50 (converted),27.5 nM
same,GI50,[6]; read-out: pGI50 (converted),112 nM
same,GI50,PC-3; read-out: pGI50 (converted),46.8 nM
same,GI50,DU-145; read-out: pGI50 (converted),219 nM

# — ChEMBL document CHEMBL2311520, “Total synthesis of AMF-26, an antitumor agent for inhibition of the Golgi system, targeting ADP-ribosylation factor 1” (J Med Chem, 2013)
